For orientation: EC50 means the midpoint of the concentration-response curve. Usually IC50 stands for the point on the concentration scale where inhibition reaches its midpoint.

Structures are written as SMILES. Where two headings read alike, the source gives them in different places.

In US11046686B2, “Thiadiazole IRAK4 compounds” (Gilead Sciences, Inc., priority 2018, dated 2021) one finds EC50 and IC50 data, which are given here for 22 compounds.

Assay [1] relates to TNFα. Put plainly: IRAK4 Monocyte TNFα Cell Based Assay. Details: species or system human. The method, boiled down:
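TNFα release quantified by HTRF (cryptate/XL665 antibody pair, overnight at RT) after 1 h compound pre-incubation (0.1% DMSO) and 4 h LPS challenge at 50 pg/ml, 37 °C, 5,000 monocytes per well. Signal ratio normalised between unstimulated (0%) and stimulated (100%) controls.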

The target of assay [2] is IRAK4 enzyme (Homo sapiens (Human), UniProt Q9NWZ3). Put plainly: IRAK4 Biochemical Assay (TR-FRET, STK1 KinEASE). The method, boiled down:
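TR-FRET endpoint (KinEASE STK1): phosphopeptide detected with cryptate antibody and tracer after EDTA quench, ratio 665/615 nm, normalized to no-inhibitor wells as % inhibition. Reaction: 0.75 nM IRAK4, […] peptide, 500 μM ATP, pH 7.0 HEPES, 120 min room temperature, after 15 min compound preincubation with enzyme.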
A general note: TR-FRET usually uses a lanthanide donor and a delayed reading to cut background.

Setting [3] is: Homo sapiens, Monocyte, human monocytes, second part of Table 2, compounds 33-343, unit inferred, read-out: EC50 MONO TNF HTRF.
Where [4] appears, read: Homo sapiens, Monocyte, read-out: EC50 MONO TNF HTRF.
Setting [5] is: Homo sapiens, Monocyte, human monocytes, LPS stimulated, compounds 1-32, read-out: EC50 TNF.
Where [6] appears, read: compounds 1-32, read-out: IC50 HTRF.
[7] abbreviates: second part of Table 2, compounds 33-343, unit inferred, read-out: IC50 IRAK4-HTBS.

IRAK4 enzyme, sequence (Q9NWZ3 whole entry): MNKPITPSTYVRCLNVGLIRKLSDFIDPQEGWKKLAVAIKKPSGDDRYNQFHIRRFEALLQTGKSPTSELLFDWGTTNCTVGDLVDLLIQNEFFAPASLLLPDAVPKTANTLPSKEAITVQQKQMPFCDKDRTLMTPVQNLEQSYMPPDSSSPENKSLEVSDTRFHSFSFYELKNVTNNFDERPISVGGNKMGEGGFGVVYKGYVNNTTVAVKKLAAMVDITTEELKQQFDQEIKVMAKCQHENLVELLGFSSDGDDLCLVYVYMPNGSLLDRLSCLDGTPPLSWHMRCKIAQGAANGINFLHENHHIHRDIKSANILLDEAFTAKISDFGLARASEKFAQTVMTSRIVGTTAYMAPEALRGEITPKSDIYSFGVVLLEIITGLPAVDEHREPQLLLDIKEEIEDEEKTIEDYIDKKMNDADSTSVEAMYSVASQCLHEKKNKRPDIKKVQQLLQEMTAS

`CC(=O)N[C@@H]1CCN(c2nnc(-c3cnc(-c4ccc5cc(C#N)cnn45)cc3NC3COC3)s2)CC1(F)F` [Example 183, (R)-N-(1-(5-(6-(3-cyanopyrrolo[1,2-b]pyridazin-7-yl)-4-(oxetan-3-ylamino)pyridin-3-yl)-1,3,4-thiadiazol-2-yl)-3,3-difluoropiperidin-4-yl)acetamide]: the concentration for a half-maximal effect (EC50) in assay [1] (setting [3]) came out at 8.8 nM. For the same compound, in assay [2], the half-inhibitory concentration (IC50) worked out at 0.5 nM.

For `CC(C)Nc1cc(-c2ccc3cc(C#N)cnn23)ncc1-c1nnc(N2C3CC2CN(C(=O)N2CCN(C)CC2)C3)s1` [Compound 277, 7-(4-(isopropylamino)-5-(5-(3-(4-methylpiperazine-1-carbonyl)-3,6-diazabicyclo[3.1.1]heptan-6-yl)-1,3,4-thiadiazol-2-yl)pyridin-2-yl)pyrrolo[1,2-b]pyridazine-3-carbonitrile], the EC50 in assay [1] (setting [4]) is 11.3 nM. Half-maximal inhibition in assay [2] (IC50) was put at 0.93 nM.

As to `CC(=O)N[C@@H]1CCN(C(=O)c2nnc(-c3cnc(-c4ccc5cc(C#N)cnn45)cc3NC(C)C)s2)C1` [Example 13, (R)-N-(1-(5-(6-(3-cyanopyrrolo[1,2-b]pyridazin-7-yl)-4-(isopropylamino)pyridin-3-yl)-1,3,4-thiadiazole-2-carbonyl)pyrrolidin-3-yl)acetamide], in assay [1] (setting [5]), the 50% effective concentration (EC50) was 23 nM. For the same compound, in assay [2] (setting [6]), the IC50 was less than 1 nM.

As for `CC(=O)N[C@H]1CC[C@H](c2nnc(-c3cnc(-c4ccc5cc(C#N)cnn45)cc3N[C@H]3CC[C@H](c4nnc(C(F)F)o4)CC3)s2)CC1` [Example 2, N-((1R,4r)-4-(5-(6-(3-cyanopyrrolo[1,2-b]pyridazin-7-yl)-4-(((1r,4R)-4-(5-(difluoromethyl)-1,3,4-oxadiazol-2-yl)cyclohexyl)amino)pyridin-3-yl)-1,3,4-thiadiazol-2-yl)cyclohexyl)acetamide], in assay [1] (setting [5]), the concentration giving a half-maximal response (EC50) was 8 nM. In addition, the half-inhibitory concentration (IC50) in assay [2] (setting [6]) came to 1 nM.

Take `CC(=O)N[C@@H]1CC[C@H](c2nnc(-c3cnc(-c4ccc5cc(C#N)cnn45)cc3NC(C)C)s2)C1` [Compound 248, N-((1R,3S)-3-(5-(6-(3-cyanopyrrolo[1,2-b]pyridazin-7-yl)-4-(isopropylamino)pyridin-3-yl)-1,3,4-thiadiazol-2-yl)cyclopentyl)acetamide]: the EC50 in assay [1] (setting [3]) came out at 16.3 nM. The 50% inhibitory concentration (IC50) in assay [2] worked out at 0.93 nM.

Regarding `CC(C)Nc1cc(-c2ccc3cc(C#N)cnn23)ncc1-c1nnc(C23CCC(O)(CC2)CC3)s1` [Example 89, 7-(5-(5-(4-hydroxybicyclo[2.2.2]octan-1-yl)-1,3,4-thiadiazol-2-yl)-4-(isopropylamino)pyridin-2-yl)pyrrolo[1,2-b]pyridazine-3-carbonitrile], the EC50 in assay [1] (setting [3]) worked out at 11.3 nM. In assay [2], this compound came in with a concentration for half-maximal inhibition (IC50) of 1.01 nM.

Turning to `CC(=O)N[C@@H]1CCN(c2nnc(-c3cnc(-c4ccc5cc(C#N)cnn45)cc3NC(C)C)s2)C[C@H]1O` [Example 65, N-((3R,4R)-1-(5-(6-(3-cyanopyrrolo[1,2-b]pyridazin-7-yl)-4-(isopropylamino)pyridin-3-yl)-1,3,4-thiadiazol-2-yl)-3-hydroxypiperidin-4-yl)acetamide], in assay [1] (setting [3]), the concentration giving a half-maximal response (EC50) was found to be 10.6 nM. The same compound displayed a 50% inhibitory concentration (IC50) in assay [2] of 0.3 nM.

Consider `[2H]C([2H])([2H])C(O)(CCc1nnc(-c2cnc(-c3ccc4cc(C#N)cnn34)cc2NC(C)C)s1)C([2H])([2H])[2H]` [Example 317, 7-(5-(5-(3-hydroxy-3-(methyl-d3)butyl-4,4,4-d3)-1,3,4-thiadiazol-2-yl)-4-(isopropylamino)pyridin-2-yl)pyrrolo[1,2-b]pyridazine-3-carbonitrile], for which, in assay [1] (setting [3]), the EC50 is 4.4 nM. In assay [2], this compound gave an IC50 of 0.6 nM.

`CC(=O)N[C@H]1CCCN(c2nnc(-c3cnc(-c4ccc5cc(C#N)cnn45)cc3NC(C)C)s2)C1` [Example 299, (S)-N-(1-(5-(6-(3-cyanopyrrolo[1,2-b]pyridazin-7-yl)-4-(isopropylamino)pyridin-3-yl)-1,3,4-thiadiazol-2-yl)piperidin-3-yl)acetamide]: the 50% effective concentration (EC50) in assay [1] (setting [3]) was determined as 41.6 nM. The compound further showed a half-inhibitory concentration (IC50) in assay [2] of 0.52 nM.

As for `CC(C)Nc1cc(-c2ccc3cc(C#N)cnn23)ncc1-c1nncs1` [Example 211, 7-(4-(isopropylamino)-5-(1,3,4-thiadiazol-2-yl)pyridin-2-yl)pyrrolo[1,2-b]pyridazine-3-carbonitrile], the EC50 in assay [1] (setting [3]) turned out to be 78.2 nM. Besides, the IC50 in assay [2] (setting [7]) worked out at 0.98 nM.

As to `CC(C)Nc1cc(-c2ccc3cc(C#N)cnn23)ncc1-c1nnc(N2CC3(CNC(=O)C3)C2)s1` [Example 163, 7-(4-(isopropylamino)-5-(5-(7-oxo-2,6-diazaspiro[3.4]octan-2-yl)-1,3,4-thiadiazol-2-yl)pyridin-2-yl)pyrrolo[1,2-b]pyridazine-3-carbonitrile], the EC50 in assay [1] (setting [3]) came out at 15 nM. In addition, in assay [2], it took 0.54 nM to reach half-maximal inhibition (IC50).

In the case of `CC(C)Nc1cc(-c2ccc3cc(C#N)cnn23)ncc1-c1nnc(N2C[C@H]3CC[C@@H](C2)[C@@H]3NC(=O)[C@H](C)O)s1` [Example 91, (S)-N-((1R,5S,8s)-3-(5-(6-(3-cyanopyrrolo[1,2-b]pyridazin-7-yl)-4-(isopropylamino)pyridin-3-yl)-1,3,4-thiadiazol-2-yl)-3-azabicyclo[3.2.1]octan-8-yl)-2-hydroxypropanamide], the EC50 in assay [1] (human monocytes, second part of Table 2, compounds 33-343, unit inferred, read-out: EC50 MONO TNF HTRF) turned out to be 3.9 nM. Moreover, in assay [2] (setting [7]), the concentration for half-maximal inhibition (IC50) is 0.93 nM.

Turning to `CC(=O)N[C@H]1CCN(C(=O)c2nnc(-c3cnc(-c4ccc5cc(C#N)cnn45)cc3NC(C)C)s2)C1` [Example 12, (S)-N-(1-(5-(6-(3-cyanopyrrolo[1,2-b]pyridazin-7-yl)-4-(isopropylamino)pyridin-3-yl)-1,3,4-thiadiazole-2-carbonyl)pyrrolidin-3-yl)acetamide], in assay [1] (setting [5]), the EC50 turned out to be 9 nM. In assay [2] (setting [6]), the IC50 was less than 1 nM.

On to `CNc1cc(-c2ccc3cc(C#N)cnn23)ncc1-c1nnc(N2CC[C@@H](NC(C)=O)C(F)(F)C2)s1` [Example 306, (R)-N-(1-(5-(6-(3-cyanopyrrolo[1,2-b]pyridazin-7-yl)-4-(methylamino)pyridin-3-yl)-1,3,4-thiadiazol-2-yl)-3,3-difluoropiperidin-4-yl)acetamide], for which the EC50 in assay [1] (setting [3]) is 18.4 nM. The midpoint of inhibition in assay [2], the IC50, lay at 1.21 nM.

As for `CC(=O)N[C@@H]1CCN(C(=O)c2cnc(-c3cnc(-c4ccc5cc(C#N)cnn45)cc3NC(C)C)s2)C1` [Example 40, (R)-N-(1-(2-(6-(3-cyanopyrrolo[1,2-b]pyridazin-7-yl)-4-(isopropylamino)pyridin-3-yl)thiazole-5-carbonyl)pyrrolidin-3-yl)acetamide], the half-maximal effective concentration (EC50) in assay [1] (setting [3]) stood at 87.6 nM. In assay [2], this compound displayed an IC50 of 3.09 nM.

As to `CC(=O)NC12CCC(c3nnc(-c4cnc(-c5ccc6cc(C#N)cnn56)cc4NC(C)C)s3)(C1)C2` [Example 288, N-(4-(5-(6-(3-cyanopyrrolo[1,2-b]pyridazin-7-yl)-4-(isopropylamino)pyridin-3-yl)-1,3,4-thiadiazol-2-yl)bicyclo[2.1.1]hexan-1-yl)acetamide], in assay [1] (setting [3]), the half-maximal effective concentration (EC50) was determined as 19.8 nM. The compound further returned an IC50 in assay [2] of 0.72 nM.

Take `CC(C)Nc1cc(-c2ccc3cc(C#N)cnn23)ncc1-c1nnc(N2CC3CC(C2)N3C(=O)C(C)(C)O)s1` [Compound 273, 7-(5-(5-(6-(2-hydroxy-2-methylpropanoyl)-3,6-diazabicyclo[3.1.1]heptan-3-yl)-1,3,4-thiadiazol-2-yl)-4-(isopropylamino)pyridin-2-yl)pyrrolo[1,2-b]pyridazine-3-carbonitrile]: the EC50 in assay [1] (setting [4]) came to 4.1 nM. The compound also registered an IC50 in assay [2] of 0.68 nM.

`CC(=O)NC12CCC(c3nnc(-c4cnc(-c5ccc6cc(C#N)cnn56)cc4NC(C)C)s3)(CC1)OC2` [Example 83, N-(1-(5-(6-(3-cyanopyrrolo[1,2-b]pyridazin-7-yl)-4-(isopropylamino)pyridin-3-yl)-1,3,4-thiadiazol-2-yl)-2-oxabicyclo[2.2.2]octan-4-yl)acetamide]: the 50% effective concentration (EC50) in assay [1] (setting [3]) is 52.5 nM. Further, in assay [2], it took 1.37 nM to reach half-maximal inhibition (IC50).

With `COC(=O)N[C@@H]1CCN(C(=O)c2nnc(-c3cnc(-c4ccc5cc(C#N)cnn45)cc3NC(C)C)s2)C1` [Example 44, methyl (R)-(1-(5-(6-(3-cyanopyrrolo[1,2-b]pyridazin-7-yl)-4-(isopropylamino)pyridin-3-yl)-1,3,4-thiadiazole-2-carbonyl)pyrrolidin-3-yl)carbamate], the 50% effective concentration (EC50) in assay [1] (setting [3]) was 27.4 nM. Besides, the midpoint of inhibition in assay [2], the IC50, lay at 0.53 nM.

On to `CC(=O)NC12CCC(c3nnc(-c4cnc(-c5ccc6cc(C#N)cnn56)cc4NC4CCOCC4)s3)(CC1)CC2` [Example 71, N-(4-(5-(6-(3-cyanopyrrolo[1,2-b]pyridazin-7-yl)-4-((tetrahydro-2H-pyran-4-yl)amino)pyridin-3-yl)-1,3,4-thiadiazol-2-yl)bicyclo[2.2.2]octan-1-yl)acetamide], for which, in assay [1] (setting [3]), the EC50 came to 3.2 nM. Moreover, the IC50 in assay [2] was found to be 0.58 nM.

Turning to `CC(=O)N[C@H]1CC[C@H](c2nnc(-c3cnc(-c4ccc5cnc(N[C@@H]6CCCC[C@@H]6N)nn45)cc3NC(C)C)s2)CC1` [Example 50, N-((1r,4r)-4-(5-(6-(2-(((1R,2S)-2-aminocyclohexyl)amino)pyrrolo[2,1-f][1,2,4]triazin-7-yl)-4-(isopropylamino)pyridin-3-yl)-1,3,4-thiadiazol-2-yl)cyclohexyl)acetamide], the EC50 in assay [1] (setting [3]) was found to be 3.6 nM. This compound yielded a half-inhibitory concentration (IC50) in assay [2] of 0.92 nM.

With `CC(C)Nc1cc(-c2ccc3cc(C#N)cnn23)ncc1-c1nnc(N2C3CNCC2C3)s1` [Compound 274, 7-(5-(5-(3,6-diazabicyclo[3.1.1]heptan-6-yl)-1,3,4-thiadiazol-2-yl)-4-(isopropylamino)pyridin-2-yl)pyrrolo[1,2-b]pyridazine-3-carbonitrile], in assay [1] (setting [4]), the half-maximal effective concentration (EC50) turned out to be 41 nM. For the same compound, the IC50 in assay [2] came to 1.59 nM.
